Values after ≈ are worked out from the molar mass of the structure shown.
Legend:
S. pneumo. = experiment: MIC assay, S. pneumo.; format: cell-based
S. aureus = experiment: MIC assay, S. aureus; format: cell-based
E. coli = experiment: MIC assay, E. coli; format: cell-based
H. flu = experiment: MIC assay, H. flu; format: cell-based
E. faecalis = experiment: MIC assay, E. faecalis; format: cell-based

For `CO[C@H]1/C=C/OC2(C)Oc3c(C)c(O)c4c(=O)c(c5oc6cc(N7CC8CC7CN8)cc(O)c6nc-5c4c3C2=O)NC(=O)/C(C)=C\C=C\[C@H](C)[C@H](O)[C@@H](C)[C@@H](O)[C@@H](C)[C@H](OC(C)=O)[C@@H]1C` (some centres unmarked) [Compound 3], the melting point was greater than 330 °C.

With “3′-hydroxy-5′-(3-hydroxy-1-azetidinyl)benzoxazinorifamycin [Compound 1]” the “MIC S. pneumo.” value (S. pneumo.) was 0.12 ng/mL, the “MIC S. aureus” value (S. aureus) was 2 ng/mL and the “MIC E. coli” value (E. coli) was 4 µg/mL. The “MIC H. flu” value (H. flu) was 0.12 µg/mL and the “MIC E. faecalis” value (E. faecalis) was 0.12 µg/mL.

For `COC1C=COC2(C)Oc3c(C)c(O)c4c(=O)c(c5oc6cc(N7CC8CCC(C7)N8)cc(O)c6nc-5c4c3C2=O)NC(=O)C(C)=CC=CC(C)C(O)C(C)C(O)C(C)C(OC(C)=O)C1C` (centres unmarked) [Compound 9], the “MIC S. pneumo.” value (S. pneumo.) was 0.12 ng/mL (≈ 0.000132 µM), the “MIC S. aureus” value (S. aureus) was 8 ng/mL (≈ 0.00878 µM) and the “MIC E. coli” value (E. coli) was greater than 8 µg/mL. The “MIC H. flu” value (H. flu) was 2 µg/mL (≈ 2.2 µM) and the “MIC E. faecalis” value (E. faecalis) was 1 µg/mL (≈ 1.1 µM).

With `COC1C=COC2(C)Oc3c(C)c(O)c4c(=O)c(c5oc6cc(N7CC8CCC(C7)N8)cc(O)c6nc-5c4c3C2=O)NC(=O)C(C)=CC=CC(C)C(O)C(C)C(O)C(C)C(O)C1C` (centres unmarked) [Compound 10] the “MIC S. pneumo.” value (S. pneumo.) was 1 ng/mL (≈ 0.00115 µM), the “MIC S. aureus” value (S. aureus) was 15 ng/mL (≈ 0.0173 µM) and the “MIC E. coli” value (E. coli) was 4 µg/mL (≈ 4.6 µM). The “MIC H. flu” value (H. flu) was 0.25 µg/mL (≈ 0.288 µM) and the “MIC E. faecalis” value (E. faecalis) was 0.12 µg/mL (≈ 0.138 µM).

`CO[C@H]1/C=C/OC2(C)Oc3c(C)c(O)c4c(=O)c(c5oc6cc(N7CC8CCC7CN8)cc(O)c6nc-5c4c3C2=O)NC(=O)/C(C)=C\C=C\[C@H](C)[C@H](O)[C@@H](C)[C@@H](O)[C@@H](C)[C@H](OC(C)=O)[C@@H]1C` (some centres unmarked) [Compound 4] gave a melting point greater than 300 °C.

— US7547692B2, “Rifamycin analogs and uses thereof” (ActivBiotics Pharma, LLC, priority 2005, dated 2009)
